For one series, the system named is staphylococci. The settings on record: literature value (de Neeling et al., 1998); cited from earlier work.
A short description of series [1]: Gentamicin release study, parallel release reactions in PBS buffer. The class given is physicochemical. Particulars: FIG. 2A; 6.0 mg solid in 1.50 mL PBS, 37° C., pH 7.4. As to the method:
Gentamicin and vancomycin loading and release are presented for a homopolymer system where the antibiotic gentamicin or vancomycin is bound to hydroxyapatite (HA) using commercially available poly-L-glutamate. This corresponds to the schematic illustrated in FIG. 1A. The experiment consisted of producing gentamicin or vancomycin adsorbed on poly-L-glutamate coated hydroxyapatite, and measuring the drug's rate of release into phosphate-buffered saline at 20° C. or 37° C. and pH 7.4, relative to a drug/hydroxyapatite control without the polymer. Gentamicin release study—Parallel release reactions: Gentamicin release rates from the experimental sample (G/pgHA) and control (G/HA) were measured by running multiple release reactions of each in parallel and stopping the reactions at different times. In each release sample 6.0 mg of solid was mixed in 1.50 mL of PBS buffer in an Eppendorf tube in a 37° C. shaker bath. Samples were removed from the bath at 15 minute intervals, centrifuged for 30 seconds, and the supernatant saved for later analysis.

For gentamicin, the “minimum inhibitory concentration required to kill staphylococci” value in the series on staphylococci was 4 µg/mL. Moreover, the “time for adsorbed gentamicin to reach equilibrium with the buffer” value in series [1] is “within one hour”.

Values taken from US20110091577A1, “DRUG RELEASE COATINGS ON CALCUIM PHOSPHATE AND USES THEREOF” (priority 2008, published 2011).
